Measured values from ChEMBL document CHEMBL3853342, “Design, synthesis and biological evaluation of novel benzo-α-pyrone containing piperazine derivatives as potential BRAFV600E inhibitors” (Bioorg Med Chem Lett, 2016).

Experiments:
[1] = Antiproliferative activity against human WM1361 cells assessed as cell growth inhibition after 24 hrs by MTT assay; format: functional, cell-based; conditions: WM1361, 24 h
[2] = Antiproliferative activity against human A375 cells assessed as cell growth inhibition after 24 hrs by MTT assay; format: functional, cell-based; conditions: A-375, 24 h
[3] = molecular target: Serine/threonine-protein kinase B-raf (Homo sapiens, UniProt P15056, V600E); assay: Inhibition of human recombinant GST-tagged BRAF catalytic domain (416 to 766 residues) V600E mutant expressed in baculovirus expression system preincubated for 1 hr followed by human full length recombinant N-terminal His-tagged MEK1 substrate addition measured after 25 mins by gel electrophoresis method
[4] = Cytotoxicity against human 293T cells assessed as cell growth inhibition after 24 hrs by MTT assay; format: toxicity, cell-based, HEK-293T
[5] = Antiproliferative activity against human WM266.4 cells harboring BRAF V600E mutant assessed as cell growth inhibition after 24 hrs by MTT assay; format: functional, cell-based; conditions: WM 266-4, 24 h

Serine/threonine-protein kinase B-raf, sequence (P15056 2-766 V600E limits assumed): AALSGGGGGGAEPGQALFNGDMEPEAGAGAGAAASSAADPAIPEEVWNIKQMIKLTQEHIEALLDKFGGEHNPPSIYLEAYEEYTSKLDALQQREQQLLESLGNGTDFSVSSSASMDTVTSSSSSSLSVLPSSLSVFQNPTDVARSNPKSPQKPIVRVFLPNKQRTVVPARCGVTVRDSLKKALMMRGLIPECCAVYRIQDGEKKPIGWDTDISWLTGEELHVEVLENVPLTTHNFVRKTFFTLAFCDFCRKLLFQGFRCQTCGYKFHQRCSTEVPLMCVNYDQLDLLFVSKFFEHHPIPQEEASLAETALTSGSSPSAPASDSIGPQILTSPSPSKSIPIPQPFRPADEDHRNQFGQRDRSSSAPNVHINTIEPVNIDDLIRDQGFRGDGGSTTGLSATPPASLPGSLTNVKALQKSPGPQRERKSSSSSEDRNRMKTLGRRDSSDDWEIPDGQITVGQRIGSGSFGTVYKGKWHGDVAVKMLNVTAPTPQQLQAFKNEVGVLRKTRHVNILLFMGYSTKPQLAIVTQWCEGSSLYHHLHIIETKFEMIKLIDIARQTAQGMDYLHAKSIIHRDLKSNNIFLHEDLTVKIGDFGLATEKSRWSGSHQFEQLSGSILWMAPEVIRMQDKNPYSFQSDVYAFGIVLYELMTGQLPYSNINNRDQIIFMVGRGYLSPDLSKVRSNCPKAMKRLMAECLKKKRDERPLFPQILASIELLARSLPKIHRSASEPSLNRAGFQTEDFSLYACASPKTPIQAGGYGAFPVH

| Compound | IC50 [1] | IC50 [2] | IC50 [3] | CC50 at 24 h [4] | IC50 [5] |
| --- | --- | --- | --- | --- | --- |
| O=c1oc2ccccc2c(N2CCN(c3cccc(Cl)c3Cl)CC2)c1CO | 45.9 µM | 8.45 µM | 3.27 µM | > 50 µM | 6.56 µM |
| O=c1oc2ccccc2c(N2CCN(c3cccc(C(F)(F)F)c3)CC2)c1CO | > 50 µM | 31.9 µM | 24.2 µM | > 50 µM | 30 µM |
| CCCS(=O)(=O)Nc1ccc(F)c(C(=O)c2c[nH]c3ncc(-c4ccc(Cl)cc4)cc23)c1F [VEMURAFENIB] | 1.86 µM | 0.21 µM | – | > 50 µM | 0.07 µM |
| O=c1oc2ccccc2c(N2CCN(C(c3ccccc3)c3ccc(Cl)cc3)CC2)c1CO (centres undefined) | 30.2 µM | 3.89 µM | 0.92 µM | > 50 µM | 2.74 µM |
